{"source": "patent US20230293677A1", "about": "(priority 2020, published 2023)", "key": {"[1]": {"system": "botulinum toxin of type A", "design": "species or system guinea pigs", "details": "guinea pig, in vivo"}, "[2]": {"system": "antigens of the VVE virus", "design": "species or system white outbred male mice", "details": "mouse, in vivo"}, "[3]": {"system": "botulinum toxin of type A", "design": "species or system white mice", "details": "mouse, in vivo"}, "[4]": {"system": "virus of Venezuelan equine encephalomyelitis, strain Trinidad", "design": "species or system outbred male mice", "details": "mouse, in vivo"}, "[5]": {"system": "Cowpox virus (CP), Pumenok strain", "design": "species or system outbred male mice", "details": "mouse, in vivo"}, "smallpox antigens": {"system": "smallpox antigens", "design": "species or system white outbred male mice", "details": "mouse, in vivo"}, "[6]": {"system": "Herpes simplex virus (HSV) of type 1, US strain", "assay": "Herpetic infection model in irradiated mice, survival after immunization", "type": "in vivo, outbred mice", "details": "for Number of dead animals, % / Number of survived animals, %: 2.5 LD50 s.c."}, "[7]": {"details": "adjuvant 150 μg/individual i.m. 3, 2, 1 days before"}}, "note": "Where two headings read alike, the source gives them in different places.", "data": [{"compound": "Nc1cccc2c([O-])nnc([O-])c12.[Na+].[Na+]", "note": "[Abidov's adjuvant, sodium salt of 5-amino-1,2,3,4-tetrahydrophthalazine-1,4-dione]", "values": [{"measurement": "Survival rate, M (M − tm − M + tm), %", "setting": "[1]", "value": 0, "unit": "%"}, {"measurement": "increase in the level of positive seroconversions compared with animals vaccinated only with VVE", "setting": "[2]", "value": 30, "unit": "%"}, {"measurement": "Survival rate, M (M − tm − M + tm), %", "setting": "[3]", "value": 0, "unit": "%"}, {"measurement": "survival rate of infected mice", "setting": "[4]", "value": "60-100%"}, {"measurement": "adjuvant effect in relation to SLDV", "setting": "[5]", "value": "not possible to identify a pronounced adjuvant effect"}, {"measurement": "effect on the formation of specific orthopoxvirus immunity", "setting": "[5]", "value": "no negative effect"}, {"measurement": "increase in the titer of specific anti-smallpox antibodies compared with animals vaccinated with only SLDV", "setting": "smallpox antigens", "value": 4, "unit": "times"}, {"measurement": "Number of dead animals, %", "setting": "[6]; [7]", "value": 70, "unit": "%"}, {"measurement": "Number of survived animals, %", "setting": "[6]; [7]", "value": 30, "unit": "%"}, {"measurement": "Number of dead animals, %", "setting": "[6]; only adjuvant, single dose", "value": 80, "unit": "%"}, {"measurement": "Number of survived animals, %", "setting": "[6]; only adjuvant, single dose", "value": 20, "unit": "%"}, {"measurement": "increase of the effectiveness of IMP", "setting": "[6]; adjuvant used in immunization schemes with herpetic vaccine", "value": 30, "unit": "%"}]}]}
